Test results as given in US7759345B2, “Antitumoral derivatives of ET-743” (priority 2001, dated 2010).
Read-outs that look alike come from different tables or passages of the source.

How the values were obtained:
A-549 = assay: Inhibition of cell growth by counting cells, A-549; format: cell-based, human; settings: Homo sapiens, A549, 72 h, read-out: IC50 (molar) A-549
Procedure, shortened: (§1)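 Monolayer lines were plated at 1×10^4 cells per well with compound in medium containing 5% FCS. After a 3-day incubation at 37° C, crystal violet staining gave an approximate IC50, and cell counting of duplicate wells gave the dose-response IC50.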

MEL-28 = assay: Inhibition of cell growth by counting cells, MEL-28; format: cell-based, human; settings: Homo sapiens, SK-MEL-28, 72 h, read-out: IC50 (molar) MEL-28
Procedure, shortened: as §1

P-388 = assay: Inhibition of cell growth by counting cells, P-388; format: cell-based, mouse; settings: Mus musculus, P388, 72 h, read-out: IC50 (molar) P-388
Procedure, shortened: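 Mouse P-388 lymphoid neoplasm suspension cells seeded at 1×10^4 cells/well in EMEM 5% FCS containing graded sample concentrations, in duplicate alongside drug-free growth controls. Cells counted by Coulter counter; % growth vs untreated gives dose-response curves, IC50 = concentration producing 50% growth inhibition.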

DU-145 = assay: Inhibition of cell growth by counting cells, DU-145; format: cell-based, human; settings: Homo sapiens, DU-145, 72 h, read-out: IC50 (molar) DU-145
Procedure, shortened: as §1

HT-29 = assay: Inhibition of cell growth by counting cells, HT-29; format: cell-based, human; settings: Homo sapiens, HT-29, 72 h, read-out: IC50 (molar) HT-29
Procedure, shortened: as §1

Row | SMILES | IC50 (A-549; three days of incubation) | IC50 (MEL-28; three days of incubation) | IC50 (P-388; three days of incubation) | IC50 (DU-145; three days of incubation) | IC50 (HT-29; three days of incubation) | IC50 (A-549) | IC50 (MEL-28) | IC50 (P-388) | IC50 (DU-145) | IC50 (HT-29)
1 | CCCCCCCCCCCCCCCC(=O)Oc1c(C)c2c(c3c1[C@H]1SC[C@]4(NCCc5cc(OC(=O)OC(C)(C)C)c(OC)cc54)C(=O)OC[C@@H]3N3C1[C@H]1c4c(cc(C)c(OC)c4O)C[C@@H]([C@@H]3C#N)N1C)OCO2 (stereo partly shown) [Compound 121] | 469 nM | 469 nM | 469 nM | 469 nM | 469 nM |  |  |  |  | 
2 | CCCCCCCCCCCCCCCC(=O)Oc1c(C)c2c(c3c1[C@H]1SC[C@]4(NCCc5cc(OC(=O)OC(C)(C)C)c(OC)cc54)C(=O)OC[C@@H]3N3C1[C@H]1c4c(cc(C)c(OC)c4OC(=O)CCCCCCCCCCCCCCC)C[C@@H]([C@@H]3C#N)N1C)OCO2 (stereo partly shown) [Compound 122] | 830 nM | 830 nM | 830 nM | 830 nM | 830 nM |  |  |  |  | 
3 | COc1cc2c(cc1OC(=O)OC(C)(C)C)CCN[C@]21CS[C@@H]2c3c(OCc4ccccc4)c(C)c4c(c3[C@H](COC1=O)N1C2[C@H]2c3c(cc(C)c(OC)c3O)C[C@@H]([C@@H]1C#N)N2C)OCO4 (stereo partly shown) [Compound 134] |  |  |  |  |  | 0.544 nM | 0.544 nM | 0.544 nM | 0.544 nM | 0.544 nM
4 | COc1cc2c(cc1OC(=O)OC(C)(C)C)CCN[C@]21CS[C@@H]2c3c(OCc4ccccc4)c(C)c4c(c3[C@H](COC1=O)N1C2[C@H]2c3c(cc(C)c(OC)c3OCc3ccccc3)C[C@@H]([C@@H]1C#N)N2C)OCO4 (stereo partly shown) [Compound 135] |  |  |  |  |  | 4.96 nM | 4.96 nM | 4.96 nM | 4.96 nM | 4.96 nM
5 | COc1cc2c(cc1O)CCN[C@]21CS[C@@H]2c3c(O)c(C)c4c(c3[C@H](COC1=O)N1C2[C@H]2c3c(cc(C)c(OC)c3O)C[C@@H]([C@@H]1C#N)N2C)OCO4 (stereo partly shown) [Compound 136] | 0.137 nM | 0.137 nM | 0.137 nM | 0.137 nM | 0.137 nM |  |  |  |  | 
6 | COc1cc2c(cc1O)CCN[C@]21CS[C@@H]2c3c(OC(=O)/C=C/c4ccccc4)c(C)c4c(c3[C@H](COC1=O)N1C2[C@H]2c3c(cc(C)c(OC)c3O)C[C@@H]([C@@H]1C#N)N2C)OCO4 (stereo partly shown) [Compound 137] | 0.117 nM | 0.117 nM | 0.117 nM | 0.117 nM | 0.117 nM |  |  |  |  | 
7 | CCCCCCCC(=O)Oc1c(C)c2c(c3c1[C@H]1SC[C@]4(NCCc5cc(O)c(OC)cc54)C(=O)OC[C@@H]3N3C1[C@H]1c4c(cc(C)c(OC)c4O)C[C@@H]([C@@H]3C#N)N1C)OCO2 (stereo partly shown) [Compound 144] | 1.17 nM | 1.17 nM | 1.17 nM | 1.17 nM | 1.17 nM |  |  |  |  | 
8 | CCCCCCCCCCCCCCCC(=O)Oc1c(C)c2c(c3c1[C@H]1SC[C@]4(NCCc5cc(O)c(OC)cc54)C(=O)OC[C@@H]3N3C1[C@H]1c4c(cc(C)c(OC)c4O)C[C@@H]([C@@H]3C#N)N1C)OCO2 (stereo partly shown) [Compound 146] | 103 nM | 103 nM | 103 nM | 103 nM | 103 nM |  |  |  |  | 
9 | COc1cc2c(cc1O)CCN[C@]21CS[C@@H]2c3c(OC(=O)C(F)(F)F)c(C)c4c(c3[C@H](COC1=O)N1C2[C@H]2c3c(cc(C)c(OC)c3O)C[C@@H]([C@@H]1C#N)N2C)OCO4 (stereo partly shown) [Compound 159] | 1.37 nM | 1.37 nM | 1.37 nM | 1.37 nM | 1.37 nM |  |  |  |  | 
10 | CCCCCCCC(=O)Oc1c(C)c2c(c3c1[C@H]1SC[C@]4(NCCc5cc(O)c(OC)cc54)C(=O)OC[C@@H]3N3C1[C@H]1c4c(cc(C)c(OC)c4O)C[C@@H]([C@@H]3O)N1C)OCO2 (stereo partly shown) [Compound 168] | 0.591 nM | 0.591 nM | 0.591 nM | 0.591 nM | 0.591 nM |  |  |  |  | 
11 | COc1cc2c(cc1OC(C)=O)CCN[C@]21CS[C@@H]2c3c(OC(C)=O)c(C)c4c(c3[C@H](COC1=O)N1C2[C@H]2c3c(cc(C)c(OC)c3O)C[C@@H]([C@@H]1C#N)N2C(=O)OC(C)(C)C)OCO4 (stereo partly shown) [Compound 191] | 1.11 nM | 1.11 nM | 1.11 nM | 1.11 nM | 1.11 nM |  |  |  |  | 
12 | CCCC(=O)Oc1cc2c(cc1OC)[C@@]1(CS[C@@H]3c4c(OC(C)=O)c(C)c5c(c4[C@H](COC1=O)N1C3[C@H]3c4c(cc(C)c(OC)c4O)C[C@@H]([C@@H]1C#N)N3C(=O)OC(C)(C)C)OCO5)NCC2 (stereo partly shown) [Compound 192] | 5.39 nM | 5.39 nM | 5.39 nM |  | 5.39 nM |  |  |  | 5.39 nM | 
13 | COc1cc2c(cc1OC(=O)/C=C/c1ccccc1)CCN[C@]21CS[C@@H]2c3c(OC(C)=O)c(C)c4c(c3[C@H](COC1=O)N1C2[C@H]2c3c(cc(C)c(OC)c3O)C[C@@H]([C@@H]1C#N)N2C(=O)OC(C)(C)C)OCO4 (stereo partly shown) [Compound 194] | 50.7 nM | 50.7 nM | 50.7 nM | 50.7 nM | 50.7 nM |  |  |  |  | 
14 | CCCCCCCC(=O)Oc1cc2c(cc1OC)[C@@]1(CS[C@@H]3c4c(OC(C)=O)c(C)c5c(c4[C@H](COC1=O)N1C3[C@H]3c4c(cc(C)c(OC)c4O)C[C@@H]([C@@H]1C#N)N3C(=O)OC(C)(C)C)OCO5)NCC2 (stereo partly shown) [Compound 195] | 10.2 nM | 10.2 nM | 10.2 nM | 10.2 nM | 10.2 nM |  |  |  |  | 
15 | CCCCCCCC(=O)Oc1cc2c(cc1OC)[C@@]1(CS[C@@H]3c4c(OC(C)=O)c(C)c5c(c4[C@H](COC1=O)N1C3[C@H]3c4c(cc(C)c(OC)c4OC(=O)CCCCCCC)C[C@@H]([C@@H]1C#N)N3C(=O)OC(C)(C)C)OCO5)NCC2 (stereo partly shown) [Compound 196] | 9020 nM | 9020 nM | 9020 nM | 9020 nM | 9020 nM |  |  |  |  | 
16 | CCCCCCCCCCCCCCCC(=O)Oc1cc2c(cc1OC)[C@@]1(CS[C@@H]3c4c(OC(C)=O)c(C)c5c(c4[C@H](COC1=O)N1C3[C@H]3c4c(cc(C)c(OC)c4O)C[C@@H]([C@@H]1C#N)N3C(=O)OC(C)(C)C)OCO5)NCC2 (stereo partly shown) [Compound 197] | 9130 nM | 9130 nM | 9130 nM | 9130 nM | 9130 nM |  |  |  |  | 
17 | CCCCCCCCCCCCCCCC(=O)Oc1cc2c(cc1OC)[C@@]1(CS[C@@H]3c4c(OC(C)=O)c(C)c5c(c4[C@H](COC1=O)N1C3[C@H]3c4c(cc(C)c(OC)c4OC(=O)CCCCCCCCCCCCCCC)C[C@@H]([C@@H]1C#N)N3C(=O)OC(C)(C)C)OCO5)NCC2 (stereo partly shown) [Compound 198] | 7500 nM | 7500 nM | 7500 nM | 7500 nM | 7500 nM |  |  |  |  | 
18 | COc1cc2c(cc1OC(C)=O)CCN[C@]21CS[C@@H]2c3c(OC(C)=O)c(C)c4c(c3[C@H](COC1=O)N1C2[C@@H]2N[C@@H](Cc3cc(C)c(OC)c(O)c32)[C@@H]1C#N)OCO4 (stereo partly shown) [Compound 202] | 0.125 nM | 0.0625 nM | 0.125 nM | 0.0625 nM | 0.125 nM |  |  |  |  | 
19 | CCCC(=O)Oc1cc2c(cc1OC)[C@@]1(CS[C@@H]3c4c(OC(C)=O)c(C)c5c(c4[C@H](COC1=O)N1C3[C@@H]3N[C@@H](Cc4cc(C)c(OC)c(O)c43)[C@@H]1C#N)OCO5)NCC2 (stereo partly shown) [Compound 203] | 0.121 nM | 0.121 nM | 0.121 nM | 0.121 nM | 0.121 nM |  |  |  |  | 
20 | COc1cc2c(cc1OC(=O)/C=C/c1ccccc1)CCN[C@]21CS[C@@H]2c3c(OC(C)=O)c(C)c4c(c3[C@H](COC1=O)N1C2[C@@H]2N[C@@H](Cc3cc(C)c(OC)c(O)c32)[C@@H]1C#N)OCO4 (stereo partly shown) [Compound 204] | 0.113 nM | 0.113 nM | 0.113 nM | 0.113 nM | 0.113 nM |  |  |  |  | 
